Drawing on US9359308B2, “Pyrazine kinase inhibitors” (Portola Pharmaceuticals, Inc., priority 2011, dated 2016), this text covers IC50 for 23 molecules.

In the test the target is T1, full length active recombinant SYK enzyme (Homo sapiens, UniProt P43405).
T1 construct: full length active recombinant SYK enzyme (Millipore, Calif.); purchased Millipore
The test can be described thus: Inhibition of Syk tyrosine phosphorylation activity (LANCE TR-FRET kinase assay). The note with it: activity in the Syk assays, class symbols. The format is biochemical. Put shortly:
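1 nM full-length active recombinant SYK phosphorylated 550 nM biotin-DEEDYESP-OH with 100 μM ATP in 50 mM Tris pH 7.5, 5 mM MgCl2, 1 mM DTT and 3% DMSO for 1 h at room temperature. After EDTA quench, Eu-anti-phosphotyrosine/SA-APC TR-FRET was read after 1 h. IC50s came from non-linear regression.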
For orientation: Time-resolved FRET reads energy transfer from a long-lived donor to a nearby acceptor.
On to `CC[C@@H](Nc1cnc(C(N)=O)c(Nc2cc(C)ns2)n1)C(N)=O` [Example 373, (R)-5-(1-amino-1-oxobutan-2-ylamino)-3-(3-methylisothiazol-5-ylamino)pyrazine-2-carboxamide], for which the half-maximal inhibitory concentration (IC50) – broadly, the concentration needed to halve the response being measured – was in the range of 1 to 10 nM. For `COc1cncc(Nc2nc(N[C@@H]3CCCC(F)(F)[C@@H]3N)cnc2C(N)=O)c1` [Example 333, 5-((1R,2R)-2-amino-3,3-difluorocyclohexylamino)-3-(5-methoxypyridin-3-ylamino)pyrazine-2-carboxamide] the value was 100 to 1000 nM. Consider `CC(=O)N1CCC[C@H](Nc2cnc(C(N)=O)c(Nc3cnc4ccccc4c3)n2)C1` [Example 109, (S)-5-((1-acetylpiperidin-3-yl)amino)-3-(quinolin-3-ylamino)pyrazine-2-carboxamide], for which the half-inhibitory concentration (IC50) is above 1000 nM. The value for `NC(=O)c1ccc(Nc2nc(N[C@@H]3CCCC(F)(F)[C@@H]3N)cnc2C(N)=O)cc1` [Example 19, 5-((1R,2R)-2-amino-3,3-difluorocyclohexylamino)-3-(4-carbamoylphenylamino)pyrazine-2-carboxamide] was 10 to 100 nM.

As for `C[C@@H](Nc1cnc(C(N)=O)c(Nc2ccc3ncccc3c2)n1)C(N)=O` [Example 4, (R)-5-(1-amino-1-oxopropan-2-ylamino)-3-(quinolin-6-ylamino)pyrazine-2-carboxamide], the half-maximal inhibitory concentration (IC50) is 1 to 10 nM. For `CN(C)C(=O)c1cccc(Nc2nc(N[C@@H]3CCCC[C@@H]3N)cnc2C(N)=O)c1` [Example 283, 5-((1R,2S)-2-aminocyclohexylamino)-3-(3-(dimethylcarbamoyl)phenylamino)pyrazine-2-carboxamide], the 50% inhibitory concentration (IC50) lay in the range of 10 to 100 nM. The value for `NC(=O)c1ncc(N[C@@H]2CCCC[C@@H]2N)nc1Nc1ccc(-n2cccn2)cc1` [Example 62, 3-(4-(1H-pyrazol-1-yl)phenylamino)-5-((1R,2S)-2-aminocyclohexylamino)pyrazine-2-carboxamide] was 100 to 1000 nM; that for `NC(=O)c1ncc(N[C@@H]2CCCC[C@@H]2N)nc1N[C@@H]1CCc2ccccc21` [Example 38, 5-((1R,2S)-2-aminocyclohexylamino)-3-((R)-2,3-dihydro-1H-inden-1-ylamino)pyrazine-2-carboxamide] was 100 to 1000 nM.

As to `Cc1cc(Nc2nc(N[C@@H]3CCOC[C@@H]3N)cnc2C(N)=O)sn1` [Example 408, 5-((3R,4R)-3-aminotetrahydro-2H-pyran-4-ylamino)-3-(3-methylisothiazol-5-ylamino)pyrazine-2-carboxamide], the 50% inhibitory concentration (IC50) fell in the range of 1 to 10 nM. For `CC[C@@H](Nc1cnc(C(N)=O)c(Nc2cc(C(C)C)ns2)n1)C(N)=O` [Example 240, (R)-5-(1-amino-1-oxobutan-2-ylamino)-3-(3-isopropylisothiazol-5-ylamino)pyrazine-2-carboxamide] the value was 10 to 100 nM; for `NC(=O)c1ncc(N[C@@H]2CCCC(F)(F)[C@@H]2N)nc1Nc1ccc2cccnc2c1` [Example 384, 5-((1R,2R)-2-amino-3,3-difluorocyclohexylamino)-3-(quinolin-7-ylamino)pyrazine-2-carboxamide], 10 to 100 nM; for `CC(C)C[C@@H](Nc1cnc(C(N)=O)c(Nc2ccc(-c3ccno3)cc2)n1)C(N)=O` [Example 21, (R)-5-(1-amino-4-methyl-1-oxopentan-2-ylamino)-3-(4-(isoxazol-5-yl)phenylamino)pyrazine-2-carboxamide], 1 to 10 nM. The value for `CN1C(=O)Cc2cc(Nc3nc(N[C@@H]4CCCC[C@@H]4N)cnc3C(N)=O)ccc21` [Example 324, 5-((1R,2S)-2-aminocyclohexylamino)-3-(1-methyl-2-oxoindolin-5-ylamino)pyrazine-2-carboxamide] was 1 to 10 nM. As to `CC[C@@H](Nc1cnc(C(N)=O)c(Nc2ccc(S(C)(=O)=O)cc2)n1)C(N)=O` [Example 159, (R)-5-(1-amino-1-oxobutan-2-ylamino)-3-(4-(methylsulfonyl)phenylamino)pyrazine-2-carboxamide], the 50% inhibitory concentration (IC50) was 10 to 100 nM. As to `CC(C)(C)[C@@H](Nc1cnc(C(N)=O)c(Nc2cnc3ccccc3c2)n1)C(N)=O` [Example 191, (R)-5-(1-amino-3,3-dimethyl-1-oxobutan-2-ylamino)-3-(quinolin-3-ylamino)pyrazine-2-carboxamide], the half-inhibitory concentration (IC50) lay in the range of 1 to 10 nM. The value for `CC(C)C[C@@H](Nc1cnc(C(N)=O)c(Nc2ccc(C(=O)N3CCC3)nc2)n1)C(N)=O` [Example 282, (R)-5-(1-amino-4-methyl-1-oxopentan-2-ylamino)-3-(6-(azetidine-1-carbonyl)pyridin-3-ylamino)pyrazine-2-carboxamide] was 1 to 10 nM; that for `CC(C)C[C@@H](Nc1cnc(C(N)=O)c(Nc2ccc(C(=O)N(C)C)cc2)n1)C(N)=O` [Example 281, (R)-5-(1-amino-4-methyl-1-oxopentan-2-ylamino)-3-(4-(dimethylcarbamoyl)phenylamino)pyrazine-2-carboxamide] was 10 to 100 nM; that for `NC(=O)c1ncc(N[C@@H]2CCCC[C@@H]2N)nc1Nc1cccc(-n2nccn2)c1` [Example 10, 3-(3-(2H-1,2,3-triazol-2-yl)phenylamino)-5-((1R,2S)-2-aminocyclohexylamino)pyrazine-2-carboxamide] was 1 to 10 nM.

`Cc1cc(Nc2nc(N[C@H](CC3CC3)C(N)=O)cnc2C(N)=O)sn1` [Example 374, (R)-5-(1-amino-3-cyclopropyl-1-oxopropan-2-ylamino)-3-(3-methylisothiazol-5-ylamino)pyrazine-2-carboxamide]: the IC50 fell in the range of 1 to 10 nM. For `NC(=O)c1ncc(N[C@@H]2CCCC[C@@H]2N)nc1Nc1ccn2ccnc2c1` [Example 427, 5-(((1R,2S)-2-aminocyclohexyl)amino)-3-(imidazo[1,2-a]pyridin-7-ylamino)pyrazine-2-carboxamide] the value was 1 to 10 nM; for `CC[C@@H](Nc1cnc(C(N)=O)c(Nc2ccc(N(C)C)nc2)n1)C(N)=O` [Example 310, (R)-5-(1-amino-1-oxobutan-2-ylamino)-3-(6-(dimethylamino)pyridin-3-ylamino)pyrazine-2-carboxamide], 10 to 100 nM. For `CS(=O)(=O)c1cccc(Nc2nc(N[C@@H]3CCCC[C@@H]3N)cnc2C(N)=O)c1` [Example 154, 5-((1R,2S)-2-aminocyclohexylamino)-3-(3-(methylsulfonyl)phenylamino)pyrazine-2-carboxamide], the IC50 lay in the range of 10 to 100 nM. Regarding `CC[C@@H](Nc1cnc(C(N)=O)c(Nc2ccc(OC)c(OC)c2)n1)C(N)=O` [Example 151, (R)-5-(1-amino-1-oxobutan-2-ylamino)-3-(3,4-dimethoxyphenylamino)pyrazine-2-carboxamide], the IC50 fell in the range of 10 to 100 nM.
